How the values were obtained:
study subjects [1] = assay: Peroral treatment of study subjects with tetrahydrocarbazole compounds: chemical (hormonal) castration (Examples 4-9); format: in vivo, human; details: 50 to 150 mg perorally daily as a single dose, schemes of 6 weeks to 6 months
Protocol: In the course of the present invention, the terms “hormone” and “hormonal” within for instance the terms “hormone castration”, “chemical (hormonal) castration” or “hormone withdrawal symptoms” refer to follicle stimulating hormone (FSH), luteinizing hormone (LH) and/or testosterone. Preferably, chemical (hormonal) castration is a testosterone castration and refers to a testosterone blood level of equal or below 1.2 ng/mL, preferably 0.5 ng/mL.
Study subjects are treated with compound (76) with the following doses according to the following administration schemes: • in a 3 month trial, 75 mg or 150 mg compound (76) administered perorally daily as a single dose on day 2-7 of the menstrual cycle • in a 3 months trial, 75 mg, 100 mg or 150 mg compound (76) administered perorally daily as a single dose on day 2-7 of the menstrual cycle followed by a 3 months treatment-free period • in a 6 months trial, 75 mg or 150 mg compound (76) administered perorally daily as a single dose • 50 mg or 150 mg per compound (76) administered daily as a single dose over 42 days (6 weeks)
Study subjects are treated with compound (68) with the following doses according to the following administration schemes: • in a 3 month trial, 75 mg or 150 mg compound (68) administered perorally daily as a single dose on day 2-7 of the menstrual cycle • in a 3 months trial, 75 mg, 100 mg or 150 mg compound (68) administered perorally daily as a single dose on day 2-7 of the menstrual cycle followed by a 3 months treatment-free period • in a 6 months trial, 75 mg or 150 mg compound (68) administered perorally daily as a single dose • 50 mg or 150 mg per compound (68) administered daily as a single dose over 42 days (6 weeks)
Study subjects are treated with compound 36 with the following doses according to the following administration schemes: • in a 3 month trial, 75 mg or 150 mg compound 36 administered perorally daily as a single dose on day 2-7 of the menstrual cycle • in a 3 months trial, 75 mg, 100 mg or 150 mg compound 36 administered perorally daily as a single dose on day 2-7 of the menstrual cycle followed by a 3 months treatment-free period • in a 6 months trial, 75 mg or 150 mg compound 36 administered perorally daily as a single dose • 50 mg or 150 mg per compound 36 administered daily as a single dose over 42 days (6 weeks)
Study subjects are treated with compound 37 with the following doses according to the following administration schemes: • in a 3 month trial, 75 mg or 150 mg compound 37 administered perorally daily as a single dose on day 2-7 of the menstrual cycle • in a 3 months trial, 75 mg, 100 mg or 150 mg compound 37 administered perorally daily as a single dose on day 2-7 of the menstrual cycle followed by a 3 months treatment-free period • in a 6 months trial, 75 mg or 150 mg compound 37 administered perorally daily as a single dose • 50 mg or 150 mg per compound 37 administered daily as a single dose over 42 days (6 weeks)
Study subjects are treated with compound 52 with the following doses according to the following administration schemes: • in a 3 month trial, 75 mg or 150 mg compound 52 administered perorally daily as a single dose on day 2-7 of the menstrual cycle • in a 3 months trial, 75 mg, 100 mg or 150 mg compound 52 administered perorally daily as a single dose on day 2-7 of the menstrual cycle followed by a 3 months treatment-free period • in a 6 months trial, 75 mg or 150 mg compound 52 administered perorally daily as a single dose • 50 mg or 150 mg per compound 52 administered daily as a single dose over 42 days (6 weeks)

study subjects [2] = assay: Peroral treatment of study subjects with tetrahydrocarbazole compounds: nocturia frequency, urgency to urinate, frequency of emptying (Examples 4-9); format: in vivo, human; details: 50 to 150 mg perorally daily as a single dose, schemes of 6 weeks to 6 months

| SMILES | chemical (hormonal) castration (study subjects [1]) | nocturia frequency, urgency to urinate and/or frequency of emptying compared to placebo (study subjects [2]) |
| --- | --- | --- |
| CCC(C)[C@H](NC(=O)Cc1ccccc1F)C(=O)N[C@]1(C(=O)N[C@H](C(N)=S)C(C)CC)CCc2[nH]c3c(Cl)cc(F)cc3c2C1 (stereo partly drawn) [compound (68), (R)-8-chloro-6-fluoro-3-{(S)-2-[2-(2-fluorophenyl)acetylamino]-3-methyl-pentanoylamino}-2,3,4,9-tetrahydro-1H-carbazole-3-carboxylic acid ((S)-2-methyl-1-thiocarbamoylbutyl)amide] | successfully prevented | decrease |
| CCC(C)[C@H](NC(=O)Cc1ccccc1F)C(=O)N[C@]1(C(=O)N[C@H](C(N)=S)C(C)CC)CCc2[nH]c3c(C(F)(F)F)cccc3c2C1 (stereo partly drawn) [compound (76), (R)-3-{(S)-2-[2-(2-fluorophenyl)acetylamino]-3-methyl-pentanoylamino}-8-trifluoromethyl-2,3,4,9-tetrahydro-1H-carbazole-3-carboxylic acid ((S)-2-methyl-1-thiocarbamoylbutyl)amide] | successfully prevented | decrease |
